Target: T1, catalytic domain of human PARP14 (residues 1611 to 1801) with NanoLuc tag (Homo sapiens, UniProt Q460N5)
T1 construct: expressed in transfected cells; host or cells: HEK-293T cells (ATCC), plasmid pRTX240 in pcDNA3.1(-)
T1 sequence (Q460N5 1611-1801): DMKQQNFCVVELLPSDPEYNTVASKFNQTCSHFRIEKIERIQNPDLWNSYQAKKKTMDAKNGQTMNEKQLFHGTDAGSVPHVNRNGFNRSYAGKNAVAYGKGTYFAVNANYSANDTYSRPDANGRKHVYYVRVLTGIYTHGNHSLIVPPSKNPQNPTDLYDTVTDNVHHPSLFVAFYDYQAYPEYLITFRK
Assay: NanoLuc assay for the degradation of PARP14
Type: cell-based
Details: Assay A; NanoLuc-PARP14 overexpressed in HEK-293T cells; 2 hours at 37 degrees; luminescence
Protocol: The catalytic domain of human PARP14 (residues 1611 to 1801, GenBank Accession No. NM_017554) was inserted into the pcDNA3.1(−) vector. The insert also contained a NanoLuc tag on the N terminus of the PARP14 protein.
Degradation of PARP14 protein was assessed using measurement of the NanoLuc tag as proxy for the PARP14 protein. PARP14 with NanoLuc tag was overexpressed in […] cells (ATCC) using the plasmid described in Table 1. Plasmid DNA was diluted in empty vector DNA then added to 1.163 mL of phenol red free OptiMEM (Thermo Fisher). Plasmid DNA concentrations used in each assay described in Table 1. The plasmid DNA was mixed with 78.5 μL of Fugene HD (Promega) and allowed to incubate 5 minutes.
Next, 1.125 mL were added to 10 million 293T cells in DMEM (Thermo Fisher) supplemented with 10% FBS (VWR) and 1× Glutamax (Gibco). The transfection was incubated for 24 hrs at 37 degrees in an incubator supplemented with 5% CO2. The cells were then trypsinized and brought up in phenol red free OptiMEM media. Transfected HEK-293T cells were diluted to […] and then added to assay plate (Corning 3574) using a Multidrop (Thermo Fisher) to add 40 μL per well of the 384 well plate, resulting in 5,000 cells per well. 40 nL of a dose response curve diluted in DMSO of each test compound was added to the cell plate using a Mosquito (TTP Labtech) and the plate was incubated at 37 degrees for 2 hours. Assay plate was brought to room temperature then 20 μL per well of NanoGlo (Promega) was added to the plate. Luminescence was measured on an Envision (Perkin Elmer).
The average DMSO was calculated from 32 wells containing 0.1% DMSO only in columns 12 and 24 of the assay plate. The % of DMSO values were calculated as described below: […]
The % of DMSO values were plotted as a function of compound concentration and the following 4-parameter fit was applied to derive the DC50 values:
where top, bottom, and Hill Coefficient are allowed to float. Y is the % of DMSO and X is the compound concentration.
DC50 data for the Example compounds is provided below in Table 2 (“+” is <0.1 μM; “++” is ≥0.1 μM and <1 μM; and “+++” is ≥1 μM).

| Structure (SMILES) | DC50 [nM] |
| --- | --- |
| CC(=O)N1CCC(COc2cc(F)c3c(=O)[nH]c(CSC4CCN(C(=O)c5ccc(NC6CCC(=O)NC6=O)cc5)CC4)nc3c2)CC1 (stereo not shown) [Example 25, 3-((4-(4-(((7-((1-acetylpiperidin-4-yl)methoxy)-5-fluoro-4-oxo-3,4-dihydroquinazolin-2-yl)methyl)thio)piperidine-1-carbonyl)phenyl)amino)piperidine-2,6-dione] | < 100 |
| CC(=O)N1CCC(COc2cc(F)c3c(=O)[nH]c(CSC4CCN(CC(=O)Nc5ccc6c(c5)C(=O)N(C5CCC(=O)NC5=O)C6=O)CC4)nc3c2)CC1 (stereo not shown) [Example 32, 2-(4-(((7-((1-acetylpiperidin-4-yl)methoxy)-5-fluoro-4-oxo-3,4-dihydroquinazolin-2-yl)methyl)thio)piperidin-1-yl)-N-(2-(2,6-dioxopiperidin-3-yl)-1,3-dioxoisoindolin-5-yl)acetamide] | < 100 |
| CC(=O)N1CCC(COc2cc(F)c3c(=O)[nH]c(CSC4CCN(C(=O)CNc5ccc6c(c5)C(=O)N(C5CCC(=O)NC5=O)C6=O)CC4)nc3c2)CC1 (stereo not shown) [Example 24, 5-((2-(4-(((7-((1-acetylpiperidin-4-yl)methoxy)-5-fluoro-4-oxo-3,4-dihydroquinazolin-2-yl)methyl)thio)piperidin-1-yl)-2-oxoethyl)amino)-2-(2,6-dioxopiperidin-3-yl)isoindoline-1,3-dione] | < 100 |
| CC(=O)N1CCC(COc2cc(F)c3c(=O)[nH]c(CSC4CCN(CC(=O)N5CCC(CN6CCN(c7cccc8c7C(=O)N(C7CCC(=O)NC7=O)C8=O)CC6)CC5)CC4)nc3c2)CC1 (stereo not shown) [Example 19, 4-(4-((1-(2-(4-(((7-((1-acetylpiperidin-4-yl)methoxy)-5-fluoro-4-oxo-3,4-dihydroquinazolin-2-yl)methyl)thio)piperidin-1-yl)acetyl)piperidin-4-yl)methyl)piperazin-1-yl)-2-(2,6-dioxopiperidin-3-yl)isoindoline-1,3-dione] | < 100 |
| O=C(CN1CCC(SCc2nc3cc(OCC4CCOCC4)cc(F)c3c(=O)[nH]2)CC1)NCC(=O)N1CCC(c2cccc(NC3CCC(=O)NC3=O)c2)CC1 (stereo not shown) [Example 11, N-(2-(4-(3-((2,6-dioxopiperidin-3-yl)amino)phenyl)piperidin-1-yl)-2-oxoethyl)-2-(4-(((5-fluoro-4-oxo-7-((tetrahydro-2H-pyran-4-yl)methoxy)-3,4-dihydroquinazolin-2-yl)methyl)thio)piperidin-1-yl)acetamide] | < 100 |
| O=C(CN1CCC(SCc2nc3cc(OCC4CCOCC4)cc(F)c3c(=O)[nH]2)CC1)NCCN1CCC(c2cccc(NC3CCC(=O)NC3=O)c2)CC1 (stereo not shown) [Example 15, N-(2-(4-(3-((2,6-dioxopiperidin-3-yl)amino)phenyl)piperidin-1-yl)ethyl)-2-(4-(((5-fluoro-4-oxo-7-((tetrahydro-2H-pyran-4-yl)methoxy)-3,4-dihydroquinazolin-2-yl)methyl)thio)piperidin-1-yl)acetamide] | < 100 |
| O=C(CN1CCC(SCc2nc3cc(OCC4CCOCC4)cc(F)c3c(=O)[nH]2)CC1)NCCN1CCC(c2ccc(NC3CCC(=O)NC3=O)cc2)CC1 (stereo not shown) [Example 9, N-(2-(4-(4-((2,6-dioxopiperidin-3-yl)amino)phenyl)piperidin-1-yl)ethyl)-2-(4-(((5-fluoro-4-oxo-7-((tetrahydro-2H-pyran-4-yl)methoxy)-3,4-dihydroquinazolin-2-yl)methyl)thio)piperidin-1-yl)acetamide] | < 100 |
| O=C1CCN(c2ccc(C3CCN(CC4CCN(C(=O)CN5CCC(SCc6nc7cc(OCC8CCOCC8)cc(F)c7c(=O)[nH]6)CC5)CC4)CC3)cc2)C(=O)N1 [Example 20, 1-(4-(1-((1-(2-(4-(((5-fluoro-4-oxo-7-((tetrahydro-2H-pyran-4-yl)methoxy)-3,4-dihydroquinazolin-2-yl)methyl)thio)piperidin-1-yl)acetyl)piperidin-4-yl)methyl)piperidin-4-yl)phenyl)dihydropyrimidine-2,4(1H,3H)-dione] | < 100 |
| O=C(CN1CCC(SCc2nc3cc(OCC4CCOCC4)cc(F)c3c(=O)[nH]2)CC1)NCCCCCC(=O)N1CCC(c2ccc(NC3CCC(=O)NC3=O)cc2)CC1 (stereo not shown) [Example 6, N-(6-(4-(4-((2,6-dioxopiperidin-3-yl)amino)phenyl)piperidin-1-yl)-6-oxohexyl)-2-(4-(((5-fluoro-4-oxo-7-((tetrahydro-2H-pyran-4-yl)methoxy)-3,4-dihydroquinazolin-2-yl)methyl)thio)piperidin-1-yl)acetamide] | < 100 |
| CC(=O)N1CCC(COc2cc(F)c3c(=O)[nH]c(CSC4CCN(CC#Cc5ccc6c(c5)n(C)c(=O)n6C5CCC(=O)NC5=O)CC4)nc3c2)CC1 (stereo not shown) [Example 36, 3-(5-(3-(4-(((7-((1-acetylpiperidin-4-yl)methoxy)-5-fluoro-4-oxo-3,4-dihydroquinazolin-2-yl)methyl)thio)piperidin-1-yl)prop-1-yn-1-yl)-3-methyl-2-oxo-2,3-dihydro-1H-benzo[d]imidazol-1-yl)piperidine-2,6-dione] | < 100 |

The remaining lines, values ahead:

| DC50 [nM] | Structure (SMILES) |
| --- | --- |
| < 100 | CC(=O)N1CCC(COc2cc(F)c3c(=O)[nH]c(CSC4CCN(CC#Cc5cccc(N6CCC(=O)NC6=O)c5)CC4)nc3c2)CC1 [Example 38, 1-(3-(3-(4-(((7-((1-acetylpiperidin-4-yl)methoxy)-5-fluoro-4-oxo-3,4-dihydroquinazolin-2-yl)methyl)thio)piperidin-1-yl)prop-1-yn-1-yl)phenyl)dihydropyrimidine-2,4(1H,3H)-dione] |
| < 100 | O=C1CCC(N2C(=O)c3cccc(N4CCC(CN5CCC(C(=O)N6CCC(SCc7nc8cc(NC9CCCC9)cc(F)c8c(=O)[nH]7)CC6)CC5)CC4)c3C2=O)C(=O)N1 (stereo not shown) [Example 23, 4-(4-((4-(4-(((7-(cyclopentylamino)-5-fluoro-4-oxo-3,4-dihydroquinazolin-2-yl)methyl)thio)piperidine-1-carbonyl)piperidin-1-yl)methyl)piperidin-1-yl)-2-(2,6-dioxopiperidin-3-yl)isoindoline-1,3-dione] |
| < 100 | CC(=O)N1CCC(COc2cc(F)c3c(=O)[nH]c(CSC4CCN(CC5CCN(c6cccc7c6C(=O)N(C6CCC(=O)NC6=O)C7=O)CC5)CC4)nc3c2)CC1 (stereo not shown) [Example 39, 4-(4-((4-(((7-((1-acetylpiperidin-4-yl)methoxy)-5-fluoro-4-oxo-3,4-dihydroquinazolin-2-yl)methyl)thio)piperidin-1-yl)methyl)piperidin-1-yl)-2-(2,6-dioxopiperidin-3-yl)isoindoline-1,3-dione] |
| < 100 | CC(=O)N1CCC(COc2cc(F)c3c(=O)[nH]c(CSC4CCN(CC5CN(c6cccc7c6CN(C6CCC(=O)NC6=O)C7=O)C5)CC4)nc3c2)CC1 (stereo not shown) [Example 41, 3-(4-(3-((4-(((7-((1-acetylpiperidin-4-yl)methoxy)-5-fluoro-4-oxo-3,4-dihydroquinazolin-2-yl)methyl)thio)piperidin-1-yl)methyl)azetidin-1-yl)-1-oxoisoindolin-2-yl)piperidine-2,6-dione] |
| < 100 | O=C(CN1CCC(SCc2nc3cc(OCC4CCOCC4)cc(F)c3c(=O)[nH]2)CC1)NCCCC(=O)N1CCC(c2cccc(NC3CCC(=O)NC3=O)c2)CC1 (stereo not shown) [Example 14, N-(4-(4-(3-((2,6-dioxopiperidin-3-yl)amino)phenyl)piperidin-1-yl)-4-oxobutyl)-2-(4-(((5-fluoro-4-oxo-7-((tetrahydro-2H-pyran-4-yl)methoxy)-3,4-dihydroquinazolin-2-yl)methyl)thio)piperidin-1-yl)acetamide] |
| < 100 | O=C(CN1CCC(SCc2nc3cc(OCC4CCOCC4)cc(F)c3c(=O)[nH]2)CC1)NCCCCN1CCC(c2ccc(NC3CCC(=O)NC3=O)cc2)CC1 (stereo not shown) [Example 7, N-(4-(4-(4-((2,6-dioxopiperidin-3-yl)amino)phenyl)piperidin-1-yl)butyl)-2-(4-(((5-fluoro-4-oxo-7-((tetrahydro-2H-pyran-4-yl)methoxy)-3,4-dihydroquinazolin-2-yl)methyl)thio)piperidin-1-yl)acetamide] |

Source: patent publication US20240051946A1, “TARGETED PROTEIN DEGRADATION OF PARP14 FOR USE IN THERAPY” (Ribon Therapeutics, Inc., priority 2022, published 2024)
